The values that follow come from patent publication US10039283B2, “Substituted pyrazolyl-nicotin(thio)amide derivatives and their use as fungicides” (BAYER CROPSCIENCE AKTIENGESELLSCHAFT, priority 2014, dated 2018).

Data set [1] can be described thus: Log P by HPLC on reversed phase, method [a], acidic range (0.1% formic acid). The conditions noted are these: LC-UV, 0.1% formic acid in water and acetonitrile. Type of data set: physicochemical.
Data set [2] in a line: Log P by HPLC on reversed phase, method [b], neutral range (0.001 molar ammonium acetate). Type of data set: physicochemical. Here is the method:
Measurement of Log P values was performed according to EEC directive 79/831 Annex V.A8 by HPLC (High Performance Liquid Chromatography) on reversed phase columns with the following methods: [b] Log P value is determined by measurement of LC-UV, in a neutral range, with 0.001 molar ammonium acetate solution in water and acetonitrile as eluent (linear gradient from 10% acetonitrile to 95% acetonitrile). Calibration was done with straight-chain alkan2-ones (with 3 to 16 carbon atoms) with known Log P values (measurement of Log P values using retention times with linear interpolation between successive alkanones). Lambda-max-values were determined using UV-spectra from 200 nm to 400 nm and the peak values of the chromatographic signals.

For `O=C(Nc1cnn(-c2c(F)cccc2F)c1C(F)(F)F)c1cccnc1C(F)(F)F` [Example 19], the LogP was 2.79^[a]; in data set [1] and 2.72^[b] in data set [2].

Turning to `O=C(Nc1cnn(-c2ccccc2Cl)c1C(F)(F)F)c1cccnc1C(F)(F)F` [Example 20], the values for the LogP in data set [1] and in data set [2] were 2.87^[a]; and 2.80^[b], respectively.

Turning to `O=C(Nc1cnn(-c2c(F)cccc2F)c1C(F)(F)F)c1cccnc1C(F)F` [Example 21], the values for the LogP in data set [1] and in data set [2] were 2.50^[a]; and 2.43^[b], respectively.

For the compound `Cc1c(NC(=O)c2cccnc2C(F)F)cnn1-c1ccccc1F` [Example 22], the LogP in data set [1] was 1.71^[a];; in data set [2], 1.68^[b].

As to `O=C(Nc1cnn(-c2ccccc2Cl)c1C(F)(F)F)c1cccnc1C(F)F` [Example 77], the LogP in data set [1] was 2.58^[a];; in data set [2], 2.53^[b].
